Experimental data published in patent US20220409620A1, “REDUCING IMMUNOGENICITY TO PEGLOTICASE” (Horizon Pharma Rheumatology LLC, priority 2016, published 2022).

Tested on: adult patients with uncontrolled gout
Test: Serum uric acid (sUA) levels and sUA responder rate, open-label study of pegloticase with MTX (MIRROR OL)
Type: in vivo, human
Details: for Serum Uric Acid Change from Methotrexate Baseline, Mean (SD) / Serum Uric Acid Change from Methotrexate Baseline, Median / Serum Uric Acid, Observed, Mean (SD) / Serum Uric Acid, Observed, Median / sUA <6 mg/dL, n (%): mITT
Experimental: The primary objective is to estimate the response rate during Month 6 (Weeks 20, 22, and 24), as measured by the sustained normalization of serum uric acid (SUA) to <6 mg/dL for at least 80% of the time during Month 6 in subjects receiving KXX with MTX.
The primary efficacy outcome endpoint is the sustained normalization of SUA to <6 mg/dL for at least 80% of the time during month 6 (weeks 20, 22, and 24) in subjects receiving KXX with MTX. […] Participants who achieve this endpoint were classified as “responders.” Serum uric acid (SUA) responders may also be defined as participants achieving and maintaining SUA <6 mg/dL for at least 80% of the time during Month 6 (Weeks 20, 22, and 24).
Blood samples may be collected prior to each pegloticase infusion for measurement of SUA levels using the Beckman Coulter AU System Uric Acid procedure. Participants were declared “non-responders” if there were SUA measures >6 mg/dL at 2 consecutive study visits beginning with the week 2 visit. […] This assumption and subsequent discontinuation of pegloticase was consistent with the protocol of large phase III randomized controlled trials and the product label. A formal stopping rule was 2 occasions of SUA levels of greater than 6 mg/dL.
Clinical Chemistry—Blood samples were collected prior to each pegloticase infusion for measurement of SUA levels (primary efficacy parameter) using the Beckman Coulter AU System Uric Acid procedure. In this procedure uric acid is converted to hydrogen peroxide. Hydrogen peroxide reacts with reagent to produce a chromophore which is read bichromatically at 660/800 nm. The amount of dye formed is proportional to the uric acid concentration in the sample.
Serum samples for measurement of SUA levels were collected at the Screening Visit, the Week −4 Visit (prior to the first dose of MTX), and the Week −2 Visit during the MTX Run-in Period; within 48 hours prior to each pegloticase infusion and after the end of each pegloticase infusion prior to discharge from the site during the Pegloticase+IMM Period; at the non-infusion Week 52/End of Study/Early Termination Visits and at the Post Treatment 3 and 6 Month Follow-up Visits. Additional serum samples for SUA levels were collected at optional non-infusion (Frequent Sampling) Visits at Weeks 1 and 7. […] Subjects with SUA level >6 mg/dL at 2 consecutive visits beginning at Week 2 visit discontinued treatment, completed the End of Pegloticase Infusion Visit procedures within 2 weeks and continued the subject visits according to the protocol (without treatment).
Efficacy analyses were performed using the modified intention-to-treat (mITT) population, defined as all enrolled subjects who received ≥1 dose of pegloticase. The proportion of Month 6 responders was summarized, along with a 95% confidence interval for the proportion. The proportion of Month 3 and overall (Months 3 and 6 combined) responders was analyzed similarly.
A subject was declared a non-responder if the subject had SUA level >6 mg/dL at 2 consecutive study visits beginning with the Week 2 Visit. In addition, a subject who withdraws from study treatment for any reason after the first dose of pegloticase in the KXX+MTX Period and prior to Month 6 (for the primary endpoint) or Month 3 (for the secondary endpoint) was considered a non-responder if SUA values were not collected at the planned time points.
Patients were administered oral MTX (15 mg/week) and folate (1 mg/day) 4 weeks prior to the first pegloticase infusion (Day 1) and throughout the pegloticase treatment period. Blood was drawn prior to each infusion to measure sUA level, monitor clinical parameters, and examine for ADA development. All patients followed typical IR prophylaxis protocols (fexofenadine one day before and the morning of each infusion and acetaminophen and IV corticosteroid the morning of each infusion).

[1] = Day 1 - Pre-Infusion (after MTX Run-in)

What does the source list for `CN(Cc1cnc2nc(N)nc(N)c2n1)c1ccc(C(=O)N[C@@H](CCC(=O)O)C(=O)O)cc1` [MTX, methotrexate]?
mean sUA (Day 1, after 4-week MTX run-in, before first pegloticase infusion, 14 patients): 9.2 ± 2.5 mg/dL; Serum Uric Acid Change from Methotrexate Baseline, Mean (SD) [1]: 0.25 (1.283) mg/dL; Serum Uric Acid Change from Methotrexate Baseline, Median [1]: -0.25 mg/dL; Serum Uric Acid, Observed, Mean (SD) [1]: 9.16 (2.486) mg/dL; Serum Uric Acid, Observed, Median [1]: 9.00 mg/dL; sUA <6 mg/dL, n (%) [1]: 1 (7.1%); Serum Uric Acid Change from Methotrexate Baseline, Mean (SD) (Week - 2 (MTX Run-in)): 0.54 (0.839) mg/dL; Serum Uric Acid Change from Methotrexate Baseline, Median (Week - 2 (MTX Run-in)): 0.50 mg/dL; Serum Uric Acid, Observed, Mean (SD) (Week - 2 (MTX Run-in)): 9.45 (2.211) mg/dL; Serum Uric Acid, Observed, Median (Week - 2 (MTX Run-in)): 9.30 mg/dL; sUA <6 mg/dL, n (%) (Week - 2 (MTX Run-in)): 1 (7.1%)
